Activity calls are given as the source filed them.
What was measured:
[1] = HEp-2 cell cytotoxicity, dose response, cytotoxicity control for RSV inhibitor project, HTS (AID 2410); format: functional; settings: human respiratory syncytial virus
Cytochrome P450 2C19 = Cytochrome P450 2C19 (Homo sapiens, UniProt P33261); assay: Cytochrome panel assay with activity outcomes. Panel member name: p450-cyp2c19 Compounds with AC50 equal or less than 10 uM are considered active; format: functional; settings: read-out: AC50
Chain of Cytochrome P450 2C19 (P33261 whole entry): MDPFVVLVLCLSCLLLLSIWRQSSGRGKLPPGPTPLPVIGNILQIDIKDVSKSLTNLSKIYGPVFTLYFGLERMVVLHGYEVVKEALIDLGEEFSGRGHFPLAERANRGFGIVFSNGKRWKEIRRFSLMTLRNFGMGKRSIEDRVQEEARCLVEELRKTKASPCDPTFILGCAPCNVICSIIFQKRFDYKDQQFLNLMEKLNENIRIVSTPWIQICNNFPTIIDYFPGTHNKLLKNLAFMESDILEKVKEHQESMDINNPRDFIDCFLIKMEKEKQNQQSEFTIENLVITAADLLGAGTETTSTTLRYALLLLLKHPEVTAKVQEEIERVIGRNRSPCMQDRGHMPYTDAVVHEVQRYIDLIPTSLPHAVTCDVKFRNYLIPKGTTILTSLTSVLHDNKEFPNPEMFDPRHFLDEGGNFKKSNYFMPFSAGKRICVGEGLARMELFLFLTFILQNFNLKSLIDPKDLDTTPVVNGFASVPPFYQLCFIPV

[2] = target: T1, Heat shock factor protein 1 (Mus musculus, UniProt P38532); assay: HSF1 potentiators in luciferase reporter cells, confirmation, cell-based, NIH3T3, luminescence, dose retest (AID 435004); format: functional;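 also: stress induced by proteasome inhibitor MG132 added 30 min after compound; luciferase reporter driven by HSF1 response element in NIH3T3 cells; actives raise luminescence as potentiators of the MG132 stress response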
T1 sequence (P38532 whole entry): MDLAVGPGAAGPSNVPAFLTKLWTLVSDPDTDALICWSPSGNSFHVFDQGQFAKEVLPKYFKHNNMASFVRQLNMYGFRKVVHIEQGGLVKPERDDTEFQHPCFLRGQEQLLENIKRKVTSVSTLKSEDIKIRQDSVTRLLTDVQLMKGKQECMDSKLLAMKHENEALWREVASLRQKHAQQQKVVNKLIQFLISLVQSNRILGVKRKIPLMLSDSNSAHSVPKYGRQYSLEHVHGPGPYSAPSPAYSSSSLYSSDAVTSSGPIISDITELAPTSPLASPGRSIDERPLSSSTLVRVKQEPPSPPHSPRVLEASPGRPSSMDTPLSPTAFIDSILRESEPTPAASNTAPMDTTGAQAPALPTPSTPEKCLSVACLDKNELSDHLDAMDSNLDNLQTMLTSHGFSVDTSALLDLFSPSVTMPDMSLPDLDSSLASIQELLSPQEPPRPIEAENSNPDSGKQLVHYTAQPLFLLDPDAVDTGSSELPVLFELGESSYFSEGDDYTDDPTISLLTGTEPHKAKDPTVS

[3] = inhibitors of intracellular T. cruzi replication, confirmation, NIH3T3 host cells, beta-gal luminescence (AID 2044); format: functional, cell-based;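 also: intracellular parasites grown in NIH/3T3 mouse fibroblasts as host cells; luminescent beta-galactosidase reporter signal from transgenic T. cruzi replicating inside host cells; inhibitors lower the luminescence signal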
[4] = cytotoxicity toward NIH3T3 fibroblasts, dose response, counter-screen, cell-based, ATP luminescence, mouse fibroblasts (AID 2010); format: functional;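 also: cells exposed to compound for about 90 hours before reading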
[5] = tested on: Streptococcus sp. 'group A'; assay: growth inhibition of control SK(-) GAS strain, dose response, counter-screen for streptokinase expression inhibitor project, luminescence, kanamycin, BacTiterGlo, confirmation (AID 1900); format: functional, organism-based
Streptokinase A = target: T2, Streptokinase A (Streptococcus pyogenes serotype M1, UniProt P10520); assay: S. pyogenes streptokinase expression inhibitors, potency, dose response, plasminogen activation absorbance, OD405 (AID 1914); format: functional, Streptococcus pyogenes M1 GAS;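 also: secreted streptokinase activity via plasminogen activation per viability signal from cell pellet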
T2 sequence (P10520 whole entry): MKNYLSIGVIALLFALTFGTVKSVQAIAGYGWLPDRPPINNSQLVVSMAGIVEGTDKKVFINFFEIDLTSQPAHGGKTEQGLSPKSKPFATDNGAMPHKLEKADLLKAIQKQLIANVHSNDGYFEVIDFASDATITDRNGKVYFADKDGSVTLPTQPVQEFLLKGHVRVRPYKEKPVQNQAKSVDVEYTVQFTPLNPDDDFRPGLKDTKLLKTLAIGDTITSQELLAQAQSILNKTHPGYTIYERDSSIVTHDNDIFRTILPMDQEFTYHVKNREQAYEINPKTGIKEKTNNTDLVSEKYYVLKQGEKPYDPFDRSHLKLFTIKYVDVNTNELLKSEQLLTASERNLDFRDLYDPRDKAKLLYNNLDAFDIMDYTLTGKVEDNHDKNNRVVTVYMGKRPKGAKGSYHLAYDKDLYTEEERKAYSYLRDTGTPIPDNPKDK

Streptococcus = assay: Group A Streptococcus viability loss, dose response, counter-screen for streptokinase expression inhibitor project, luminescence, BacTiterGlo (AID 1915); format: functional, organism-based;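 also: potency for reduction of bacterial viability or growth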

Q: With `Nc1c(Cl)cc(-c2csc(N3CCCC3c3nc4cc(Cl)c(Cl)cc4n3CCCO)n2)cc1Cl` (stereo unspecified) as the compound, how does the CC50 [1] read?
A: 35.1 µM (active)

Q: Which CC50 [1] does the source give for `Cc1sc(NC(=O)c2c(F)cccc2F)nc1-c1ccccc1` here?
A: 43.2 µM (active)

Q: With `COc1cc(C(=O)NCC(c2cccs2)N2CCc3ccccc32)cc(OC)c1OC` (stereo unspecified) as the compound, how does the CC50 [1] read?
A: 18 µM (active)

Q: With `Cc1cc(OC(=O)c2ccccc2Br)cc(=O)n1C` as the compound, how does the AC50 (Cytochrome P450 2C19) read?
A: 39.8 µM (inconclusive)

Q: With `CCNc1nc(NC(C)C)nc(N(C#N)C(C)C(=O)N(CC)CC)n1` (stereo unspecified) as the compound, how does the CC50 [1] read?
A: 28.8 µM (active)

Q: With `C=CCOc1ccc(-c2nc3c(c(=O)[nH]c(=O)n3Cc3ccccc3)n2CCCOC)cc1` as the compound, how does the EC50 [2] read?
A: > 260 µM (inactive)

Q: Which EC50 [2] does the source give for `Cc1ccccc1OCCCC(=O)Nc1ccccc1C(F)(F)F` here?
A: > 260 µM (inactive)

Q: Which EC50 [3] does the source give for `COc1cc(C(=O)NCC(c2cccnc2)N2CCN(c3ccc(F)cc3)CC2)cc(OC)c1OC` (stereo unspecified) here?
A: 0.959 µM (active)

Q: And the EC50 [4]?
A: > 30 µM (not active)

Q: What does the source list for `COc1ccc(-c2cc(-c3ccc(Cl)cc3)[nH]n2)c(O)c1`?
A: EC50 [5]: 7.27 µM (active); EC50 (Streptokinase A): > 150 µM (not active); EC50 (Streptococcus): 9.14 µM (active)

Q: With `N#CCCN1CCN(C(=S)c2ccc(-c3ccc(Cl)c(Cl)c3)o2)CC1` as the compound, how does the EC50 [2] read?
A: 3.72 µM (active)

Q: Which EC50 [2] does the source give for `COc1cc(C(=O)NCC2CCCO2)ccc1OCc1ccc(Cl)cc1Cl` (stereo unspecified) here?
A: 104 µM (active)

Q: Which EC50 [3] does the source give for `CCN(CC)CCCNC(=O)c1ccc(OCC(=O)Nc2ccccc2C(F)(F)F)c(OC)c1` here?
A: 1.95 µM (active)

Q: What about the EC50 [4] of the same compound?
A: > 30 µM (not active)

Q: With `O=C(O)CSc1nc2ccccc2nc1Cc1ccccc1F` as the compound, how does the EC50 [2] read?
A: > 260 µM (inactive)

Q: For `O=C(Nc1nc2c(s1)CN(Cc1ccccc1)CC2)c1c(F)cccc1F`, which CC50 [1] is on record?
A: 16.1 µM (active)

Q: For `Nc1nc(-c2cccnc2)nc2sc3c(c12)CCCC3`, which CC50 [1] is on record?
A: > 50 µM (active)

Q: With `COc1ccc(C2CC(=O)c3c(C)nc(N4CCN(Cc5ccccc5)CC4)nc3C2)cc1OC` (stereo unspecified) as the compound, how does the EC50 [3] read?
A: 1.85 µM (active)

Q: What about the EC50 [4] of the same compound?
A: > 60 µM (not active)

Q: What does the source list for `Cc1ccc2nc(-c3ccncc3)c(NC3CCCCC3)n2c1`?
A: EC50 [3]: 1.86 µM (active); EC50 [4]: > 60 µM (not active)

Q: With `COc1ccccc1OCc1nnc(SCCN2CCOCC2)o1` as the compound, how does the EC50 [2] read?
A: > 260 µM (inactive)

Q: With `Cc1ccc(C)c(N2CCN(C(=O)CCC(=O)N3CCOc4ccc(Cl)cc43)CC2)c1` as the compound, how does the EC50 [3] read?
A: 2.47 µM (active)

Q: What about the EC50 [4] of the same compound?
A: > 60 µM (not active)

Q: For `CCCC(CCC)C(=O)OC[N+](C)(C)CCOC(=O)C(O)(c1ccccc1)C1CCCC1` (stereo unspecified), which EC50 [3] is on record?
A: 1.31 µM (active)

Q: What about the EC50 [4] of the same compound?
A: > 60 µM (not active)

Q: For `Cc1cc(C)cc(Nc2ccc([N+](=O)[O-])nc2[N+](=O)[O-])c1`, which EC50 [3] is on record?
A: 1.63 µM (active)

Q: What about the EC50 [4] of the same compound?
A: > 60 µM (not active)

Q: Which results are given for `CC(Oc1cccc(Cl)c1)C(=O)Nc1ccccc1N1CCCCC1` (stereo unspecified)?
A: EC50 [5]: 9.74 µM (active); EC50 (Streptokinase A): 13.5 µM (active); EC50 (Streptococcus): 26.4 µM (active)

Q: Which EC50 (Streptokinase A) does the source give for `COc1ccccc1NS(=O)(=O)c1cc(NC(=S)NCC2CCCO2)ccc1C` (stereo unspecified) here?
A: > 150 µM (not active)

Q: Which results are given for `COc1ccccc1NS(=O)(=O)c1cc(NC(S)=NCC2CCCO2)ccc1C` (stereo unspecified)?
A: EC50 [5]: > 150 µM (not active); EC50 (Streptococcus): > 150 µM (not active)

Q: With `Cc1cc(-c2ccccc2)c2c(O)[nH]nc2n1` as the compound, how does the CC50 [1] read?
A: 48.2 µM (active)

Q: With `COc1ccc(C2C(C(C)=O)=C(O)C(=O)N2c2ccc(C)cc2)cc1` (stereo unspecified) as the compound, how does the EC50 [2] read?
A: > 260 µM (inactive)

Q: With `CC(C)(C)c1[nH]ncc1[N+](=O)[O-]` as the compound, how does the EC50 [2] read?
A: > 260 µM (inactive)

Q: Which EC50 [3] does the source give for `Cc1ccccc1N=C(S)N(Cc1cccnc1)Cc1ccccc1Cl` here?
A: 0.8 µM (active)

Q: And the EC50 [4]?
A: > 60 µM (not active)

Source: ChEMBL document CHEMBL1201862, “PubChem BioAssay data set” (2004)
